Here are results for 1 compound from patent US8921082B2, “Method for producing xylitol from lignocellulosic hydrolysates without detoxification” (priority 2009, dated 2014).

The test deals with Candida sp. strain. The experiment in a line: Tolerance of the strain Candida sp. to furfural (xylose fermentation with furfural added). The format is cell-based. On the procedure:
The fermentation medium contained 97 g/L sterilized synthetic xylose solution with furfural in a concentration range of 1-3 g/L added. The fermentation temperature is controlled at 30° C., the agitation of the incubator is maintained at 150 rpm, and the ratio of the inocula size of the culture and the volume of the fermentation medium is 1:6 (v/v).

With `O=Cc1ccco1` [furfural], the “tolerance of the strain to furfural” value (97 g/L synthetic xylose solution, furfural 1-3 g/L added, 30° C., 150 rpm) is recorded as “higher than 3 g/L”. Besides, the xylitol yield entry (furfural 1-3 g/L in 97 g/L synthetic xylose solution) was “higher than 0.7 g/g”. Further, the “xylose fermentation capacity of the strain” value (furfural 3 g/L, 97 g/L synthetic xylose solution, compared with no furfural) is given as “the same as that without furfural”.
